How the values were obtained:
DPP IV = target: T1, DPP IV (Mus musculus, UniProt P28843); test: DPP IV inhibitory activity in vivo: DPP IV activity in plasma of ICR mouse after single oral dose; conditions: oral 3 mg/kg, compared with Alogliptin and Vildagliptin (LAF237), FIG. 1-6
T1 construct: from tissue; host or cells: plasma of ICR mouse
Method: Animals: ICR mouse (8-10 weeks old; sex: male; 25 g-30 g of body weight, purchased from Shanghai SLAC Laboratory Animal Center).
Meanwhile the solvent group was used as blank control. The blood was taken from orbital venous plexus of the mouse before administration, and 30, 60, 2 h, 4 h, 6 h, 8 h and […] after administration, respectively and loaded into Eppendorf tube (Qizhong Industrial (Shanghai) co., Ltd.) treated by anticoagulant. The plasma was obtained by centrifugation and DPP IV activity was determined.

normal ICR mouse = test: Oral glucose tolerance test (OGTT), acute hypoglycemic effect of single oral dose; type: in vivo; conditions: for hypoglycemic ability in vivo, oral glucose tolerance test: single dose 3 mg/kg by gavage, glucose 2.5 g/kg after 6 hours, FIGS. 7-10
Method: Acute hypoglycemic effect of single dose through mouth on the normal ICR mouse
Animal: ICR mouse (8-10 weeks old, sex: male, weight: 25-30 g, purchased from Shanghai SLAC Laboratory Animal Center).
1. Two days before the experiment, the food consumption was recorded and the daily food consumption of each animal was calculated;
2. The animals fasted overnight (⅓ of daily food consumption was provided, about 2 g);
3. The blood glucose was measured on the second day.
4. The medicament was administrated through gavage (1 mouse/min). After 6 hours, the blood glucose was measured. Glucose was administrated through gavage according to the body weight (2.5 g/kg). The blood glucose value was monitored at 30 min, 60 min, 90 min, and 120 min after administration.

[1] = Safety evaluation: single dose 100 mg/kg by gavage, one week observation; type: in vivo, ICR mouse; conditions: for body weight and viscera index versus normal control group (in words) / acute toxicity / kidney index versus normal control group (in words): ICR mouse; for body weight and viscera index versus normal control group (in words) / Kidney index / Liver index / Spleen index / body weight / food consumption: 100 mg/kg single dose; for acute toxicity: 100 mg/kg single dose by gavage, one week; for kidney index versus normal control group (in words): 100 mg/kg, 7th day after administration; for Kidney index / Liver index / Spleen index / body weight / food consumption: normal ICR mouse; for Kidney index / Liver index / Spleen index: 7th day
Method: After grouping, each compound was administrated once through gavage according to the dose of 100 mg/kg at the same time.

T1 sequence (P28843 37-760 limits assumed): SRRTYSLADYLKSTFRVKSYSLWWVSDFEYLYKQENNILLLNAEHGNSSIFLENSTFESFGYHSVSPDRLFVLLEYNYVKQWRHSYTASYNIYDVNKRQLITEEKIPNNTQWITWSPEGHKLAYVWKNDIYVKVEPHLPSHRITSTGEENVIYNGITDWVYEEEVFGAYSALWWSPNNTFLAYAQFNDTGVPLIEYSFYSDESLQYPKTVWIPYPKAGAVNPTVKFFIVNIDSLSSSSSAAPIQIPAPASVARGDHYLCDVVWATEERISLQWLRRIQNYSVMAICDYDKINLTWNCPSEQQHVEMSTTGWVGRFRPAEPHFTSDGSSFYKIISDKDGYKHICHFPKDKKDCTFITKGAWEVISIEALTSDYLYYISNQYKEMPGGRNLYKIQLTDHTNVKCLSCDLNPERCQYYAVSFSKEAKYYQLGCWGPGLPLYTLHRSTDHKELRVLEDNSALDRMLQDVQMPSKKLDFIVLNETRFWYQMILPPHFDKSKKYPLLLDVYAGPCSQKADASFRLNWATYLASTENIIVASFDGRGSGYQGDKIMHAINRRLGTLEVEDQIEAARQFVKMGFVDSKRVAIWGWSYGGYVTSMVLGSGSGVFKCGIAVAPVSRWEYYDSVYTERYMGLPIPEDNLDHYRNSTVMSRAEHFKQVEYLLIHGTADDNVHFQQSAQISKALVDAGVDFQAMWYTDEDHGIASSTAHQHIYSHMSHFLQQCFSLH

## CCOC(=O)CCNC(=O)c1csc2c(=O)n(Cc3ccccc3C#N)c(N3CCC[C@@H](N)C3)nc12 [DC291041]
DPP IV
  DPP IV activity of ICR mouse plasma after single dose (given as hypoglycemic ability in vivo): comparable to that of Alogliptin (3 mg), and better than that of Vildagliptin (LAF237, 15 mg)

## N#Cc1ccccc1Cn1c(N2CCC[C@@H](N)C2)nc2cc(CO)sc2c1=O [DC291408]
DPP IV
  DPP IV activity of ICR mouse plasma after single dose (given as hypoglycemic ability in vivo): comparable to that of Alogliptin (3 mg), and better than that of Vildagliptin (LAF237, 15 mg)

## N#Cc1ccccc1Cn1c(N2CCC[C@@H](N)C2)nc2cc(C(Br)Br)sc2c1=O [DC291411]
DPP IV
  DPP IV activity of ICR mouse plasma after single dose (given as hypoglycemic ability in vivo): comparable to that of Alogliptin (3 mg), and better than that of Vildagliptin (LAF237, 15 mg)
Normal ICR mouse
  hypoglycemic ability in vivo, oral glucose tolerance test: comparable to that of Alogliptin
[1]
  body weight and viscera index versus normal control group (in words): no statistical difference
  acute toxicity: did not reflect obvious acute toxicity
  kidney index versus normal control group (in words): slightly lower than that of normal control group
  Kidney index: 1.4 ± 0.1%
  Liver index: 5.0 ± 0.4%
  Spleen index: 0.4 ± 0.0%
[1]; 1 d after administration
  body weight: 30.5 ± 1.6 g
  food consumption: 19.3 g · day^−1 · cage^−1
[1]; 2 d after administration
  body weight: 31.2 ± 1.6 g
  food consumption: 21.3 g · day^−1 · cage^−1
[1]; 3 d after administration
  body weight: 31.0 ± 1.7 g
  food consumption: 18.8 g · day^−1 · cage^−1
[1]; 4 d after administration
  body weight: 31.5 ± 1.9 g
  food consumption: 18.3 g · day^−1 · cage^−1
[1]; 5 d after administration
  body weight: 31.8 ± 1.5 g
  food consumption: 17.7 g · day^−1 · cage^−1
[1]; 6 d after administration
  body weight: 31.6 ± 1.8 g
  food consumption: 20.5 g · day^−1 · cage^−1
[1]; 7 d after administration
  body weight: 32.1 ± 1.7 g
  food consumption: 21.9 g · day^−1 · cage^−1
[1]; before administration
  body weight: 30 ± 1.5 g
  food consumption: 20.8 g · day^−1 · cage^−1

## N#Cc1ccccc1Cn1c(N2CCC[C@@H](N)C2)nc2cc(C(=O)N3CCCCC3)sc2c1=O [DC291422]
DPP IV
  DPP IV activity of ICR mouse plasma after single dose (given as hypoglycemic ability in vivo): comparable to that of Alogliptin (3 mg), and better than that of Vildagliptin (LAF237, 15 mg)

## N#Cc1ccccc1Cn1c(N2CCC[C@@H](N)C2)nc2c(CN3CCOCC3)csc2c1=O [DC291005]
DPP IV
  DPP IV activity of ICR mouse plasma after single dose (given as hypoglycemic ability in vivo): comparable to that of Alogliptin (3 mg), and better than that of Vildagliptin (LAF237, 15 mg)

## N#Cc1ccccc1Cn1c(N2CCC[C@@H](N)C2)nc2c(C(=O)NC3CCOCC3)csc2c1=O [DC291034]
Normal ICR mouse
  hypoglycemic ability in vivo, oral glucose tolerance test: comparable to that of Alogliptin

## COC(=O)c1csc2c(=O)n(Cc3ccccc3C#N)c(N3CCC[C@@H](N)C3)nc12 [DC291009]
DPP IV
  DPP IV activity of ICR mouse plasma after single dose (given as hypoglycemic ability in vivo): comparable to that of Alogliptin (3 mg), and better than that of Vildagliptin (LAF237, 15 mg)
Normal ICR mouse; single administration at multiple doses, FIGS. 11-12
  hypoglycemic ability in vivo, oral glucose tolerance test after multiple single-dose administration: comparable to that of Alogliptin
Normal ICR mouse
  hypoglycemic ability in vivo, oral glucose tolerance test: comparable to that of Alogliptin
[1]
  body weight and viscera index versus normal control group (in words): no statistical difference
  acute toxicity: did not reflect obvious acute toxicity
  kidney index versus normal control group (in words): slightly lower than that of normal control group
  Kidney index: 1.4 ± 0.1%
  Liver index: 5.3 ± 0.2%
  Spleen index: 0.4 ± 0.1%
[1]; 1 d after administration
  body weight: 31.3 ± 2.0 g
  food consumption: 21.2 g · day^−1 · cage^−1
[1]; 2 d after administration
  body weight: 31.5 ± 2.3 g
  food consumption: 21.3 g · day^−1 · cage^−1
[1]; 3 d after administration
  body weight: 31.8 ± 2.3 g
  food consumption: 22.6 g · day^−1 · cage^−1
[1]; 4 d after administration
  body weight: 32.3 ± 2.2 g
  food consumption: 22.8 g · day^−1 · cage^−1
[1]; 5 d after administration
  body weight: 32.4 ± 2.5 g
  food consumption: 22.2 g · day^−1 · cage^−1
[1]; 6 d after administration
  body weight: 32.6 ± 2.6 g
  food consumption: 21.9 g · day^−1 · cage^−1
[1]; 7 d after administration
  body weight: 33 ± 2.6 g
  food consumption: 23.8 g · day^−1 · cage^−1
[1]; before administration
  body weight: 30.8 ± 2.2 g
  food consumption: 23.3 g · day^−1 · cage^−1

## N#Cc1ccccc1Cn1c(N2CCC[C@@H](N)C2)nc2cc(COCc3ccccc3)sc2c1=O [DC291402]
DPP IV
  DPP IV activity of ICR mouse plasma after single dose (given as hypoglycemic ability in vivo): comparable to that of Alogliptin (3 mg), and better than that of Vildagliptin (LAF237, 15 mg)
Normal ICR mouse
  hypoglycemic ability in vivo, oral glucose tolerance test: comparable to that of Alogliptin

## CCOC(=O)CNC(=O)c1csc2c(=O)n(Cc3ccccc3C#N)c(N3CCC[C@@H](N)C3)nc12 [DC291010]
DPP IV
  DPP IV activity of ICR mouse plasma after single dose (given as hypoglycemic ability in vivo): comparable to that of Alogliptin (3 mg), and better than that of Vildagliptin (LAF237, 15 mg)

## N#Cc1ccccc1Cn1c(N2CCC[C@@H](N)C2)nc2c(C#N)csc2c1=O [DC291036]
Normal ICR mouse
  hypoglycemic ability in vivo, oral glucose tolerance test: comparable to that of Alogliptin

## N#Cc1ccccc1Cn1c(N2CCC[C@@H](N)C2)nc2c(CO)csc2c1=O [DC291004]
DPP IV
  DPP IV activity of ICR mouse plasma after single dose (given as hypoglycemic ability in vivo): comparable to that of Alogliptin (3 mg), and better than that of Vildagliptin (LAF237, 15 mg)
Normal ICR mouse
  hypoglycemic ability in vivo, oral glucose tolerance test: comparable to that of Alogliptin
[1]
  body weight and viscera index versus normal control group (in words): no statistical difference
  acute toxicity: did not reflect obvious acute toxicity
  kidney index versus normal control group (in words): did not significantly differ
  Kidney index: 1.5 ± 0.1%
  Liver index: 5.3 ± 0.3%
  Spleen index: 0.4 ± 0.0%
[1]; 1 d after administration
  body weight: 30.3 ± 1.0 g
  food consumption: 18.7 g · day^−1 · cage^−1
[1]; 2 d after administration
  body weight: 30.8 ± 0.9 g
  food consumption: 21.0 g · day^−1 · cage^−1
[1]; 3 d after administration
  body weight: 31.0 ± 1.2 g
  food consumption: 21.1 g · day^−1 · cage^−1
[1]; 4 d after administration
  body weight: 31.6 ± 1.2 g
  food consumption: 21.5 g · day^−1 · cage^−1
[1]; 5 d after administration
  body weight: 32.0 ± 1.6 g
  food consumption: 21.9 g · day^−1 · cage^−1
[1]; 6 d after administration
  body weight: 32.0 ± 1.2 g
  food consumption: 21.5 g · day^−1 · cage^−1
[1]; 7 d after administration
  body weight: 32.5 ± 1.3 g
  food consumption: 24.1 g · day^−1 · cage^−1
[1]; before administration
  body weight: 30.2 ± 0.7 g
  food consumption: 22.5 g · day^−1 · cage^−1

## CC(=O)OCc1cc2nc(N3CCC[C@@H](N)C3)n(Cc3ccccc3C#N)c(=O)c2s1 [DC291405]
DPP IV
  DPP IV activity of ICR mouse plasma after single dose (given as hypoglycemic ability in vivo): comparable to that of Alogliptin (3 mg), and better than that of Vildagliptin (LAF237, 15 mg)

— patent publication US9045491B2, “Thienyl [3,2-D] pyrimidin-4-one compounds, preparation method, pharmaceutical compositions and use thereof” (SHANGHAI INSTITUTE OF MATERIA MEDICA, CHINESE ACADEMY OF …, priority 2011, dated 2015)
